Structures are written as SMILES.

In this experiment the test system is bacterial strain LF82 binding to the glycoprotein BSA-(Mannose)3. Description: Bacterial Binding Assay (BBA). It counts as cell-based, Escherichia coli. The conditions noted are these: read-out: Bacterial Binding Assay IC50, LF82/Luciferase strain binding to BSA-(Man)3 coated plates, luminescence. From the text:
The purpose of the Bacterial Binding Assay (BBA) is to determine the inhibition activity of
selective FimH antagonists on the bacterial strain LF82 binding to the glycoprotein BSA-(Mannose)3.
Below is a list of the Materials used to run the BBA are described below. • 1. LB broth: Supplier: Gibco, #10855 • 2. D-PBS: Supplier: Wisent, #311-425-CL • 3. LB agar plates • 4. 96-well black plate (high binding): Supplier: Costar, #3925 • 5. TopSeal™-A adhesive sealing films; Supplier PerkinElmer, #6005185 • 6. Carbonate-bicarbonate buffer pH 9.6 tablets, Supplier: Medicago, #09-8922-24 • 7. Water, Supplier: Gibco, #15230-162 • 8. Bovine serum albumin (BSA): Supplier: Sigma, #A-7888 • 9. (Man)3-BSA (α1-3, α1-6 Mannotriose-BSA, 1 mg), V-Labs, #NGP1336, lot #HGDX37-169-1 • 10. Tween 20: Supplier: Sigma, #P9416 • 11. Bright-Glo Luciferase Assay System: Supplier: Promega, #E2610 • 12. LF82/Luciferase strain: Invasive ability of an Escherichia coli strain isolated from the ileal mucosa of a patient with Crohn ? disease. Boudeau J, Glasser A L, Masseret E, Joly B, Darfeuille-Michaud A, Infect Immun. 1999, 67(9), 4499-509
Solutions and buffers used to run the BBA are described below. • 1. 0.04M carbonate-bicarbonate buffer (coating buffer) • 2. 40 μg/mL BSA-(Man)3: Dissolve 1 mg of (Man)3-BSA in 25 mL of water. • 3. 4000 μg/mL BSA • 4. 40 μg/mL BSA • 5. 1 μg/mL BSA-(Man)3: 150 μL of 40 μg/mL BSA-(Man)3+5.85 mL of 40 μg/mL BSA • 6. 0.5 μg/mL BSA-(Man)3 in 0.02M carbonate-bicarbonate buffer. • 7. 20 μg/mL BSA in 0.02M carbonate-bicarbonate buffer • 8. Blocking buffer (2% BSA/DPBS): 1 g of BSA in 50 mL D-PBS • 9. 2× binding buffer (0.2% BSA/D-PBS): 5 mL of blocking buffer+45 mL D-PBS. • 10. Washing buffer (D-PBS/0.01% Tween 20): 10 μL of Tween 20 in 100 mL D-PBS. • 11. 1× Bright-Glo Luciferase substrate: Dilute 1:1 the Bright-Glo Luciferase Assay System with D-PBS The experimental protocol to run the BBA is described below.
Overnight culture of LF82/Luciferase strain: Into two Falcon 50 mL tubes, add 20 mL of LB+20 μL of 50 mg/mL Kanamycin and inoculate with a loop from glycerol stock of the LF82/Luciferase strain. Incubate overnight at 37° C. with no shaking.
Glycoprotein coating of 96-well plates: Add 100 μL/well of 0.5-2 μg/mL BSA-(Man)3. 20 μg/mL BSA is used as the control background. Seal plate using an adhesive sealing film and incubate overnight at room temperature. Wash the 96-well plate three times with 150 μL/well of D-PBS, add 170 μL/well of blocking solution and incubate 45 min (minimum) at room temperature.
Preparation of bacterial suspension: Mix the two cultures tubes (40 mL) and perform a 1:10 dilution in LB (900 μl LB+100 μl culture. Measure optical density (OD) of the bacterial cultures. OD1 ˜5×10^8 cells/mL. Centrifuge LF82 culture for 20 min at 3500 rpm at room temperature. Re-suspend bacterial pellet in D-PBS and centrifuge again for 20 min at 3500 rpm. Re-suspend bacterial pellet in D-PBS to obtain a bacterial concentration of 2×10^9 bacteria/mL. Dilute 1/10 in D-PBS to obtain a final bacterial concentration of 2×10^8 bacteria/mL (=107 bacteria/50 μL). Perform 1/10 serial dilutions in LB of each bacterial suspension, plate 10 μL of dilutions on LB agar plates (final dilutions of 10^−7) and incubate overnight at 37° C. and count CFUs to determine the actual bacteria density in the assay.
Bacterial binding assay: Add 147 μL 2× binding buffer to compound plate (containing 3 μL of compound). After blocking step is performed (at least 45 min), wash plates three times with 200 μL/well of D-PBS. With a 100 μL multichannel manual pipettor, add 50 µL/well of compound diluted in 2× binding buffer. With a 100 μL multichannel manual pipettor, add 50 μL/well of bacterial suspension. Agitate at slow speed for 1 min and incubate 40-75 min at room temperature. Wash 5 times with 150 μL/well of washing buffer and then once with D-PBS. Add 100 μL/well of 1× Bright-Glo Luciferase substrate. […]
Turning to `OC[C@H]1O[C@H](C#Cc2ccc3nc(C#C[C@H]4O[C@H](CO)[C@@H](O)[C@H](O)[C@@H]4O)ncc3c2)[C@@H](O)[C@@H](O)[C@@H]1O` [Compound 127, (2R,3S,4R,5S,6R)-2-(hydroxymethyl)-6-[2-[2-[2-[(2R,3S,4R,5S,6R)-3,4,5-trihydroxy-6-(hydroxymethyl)tetrahydropyran-2-yl]ethynyl]quinazolin-6-yl]ethynyl]tetrahydropyran-3,4,5-triol], the IC50 was found to be 43 nM. `CCCC1(O)c2cc(C#C[C@H]3O[C@H](CO)[C@@H](O)[C@H](O)[C@@H]3O)ccc2-c2ccc(C#C[C@H]3O[C@H](CO)[C@@H](O)[C@H](O)[C@@H]3O)cc21` [Compound 168, (2R,3S,4R,5S,6R)-2-(hydroxymethyl)-6-[2-[9-hydroxy-9-propyl-7-[2-[(2R,3S,4R,5S,6R)-3,4,5-trihydroxy-6-(hydroxymethyl)tetrahydropyran-2-yl]ethynyl]fluoren-2-yl]ethynyl]tetrahydropyran-3,4,5-triol]: the IC50 came to 3.1 nM. On to `OC[C@H]1O[C@H](C#Cc2ccc3c(c2)[nH]c2cc(C#C[C@H]4O[C@H](CO)[C@@H](O)[C@H](O)[C@@H]4O)ccc23)[C@@H](O)[C@@H](O)[C@@H]1O` [Compound 118, (2R,3S,4R,5S,6R)-2-(hydroxymethyl)-6-[2-[7-[2-[(2R,3S,4R,5S,6R)-3,4,5-trihydroxy-6-(hydroxymethyl)tetrahydropyran-2-yl]ethynyl]-9H-carbazol-2-yl]ethynyl]tetrahydropyran-3,4,5-triol], for which the IC50 turned out to be 22 nM. Take `CN(C)CCN(C)C1c2cc(C#C[C@H]3O[C@H](CO)[C@@H](O)[C@H](O)[C@@H]3O)ccc2-c2ccc(C#C[C@H]3O[C@H](CO)[C@@H](O)[C@H](O)[C@@H]3O)cc21` [Compound 213, (2R,3S,4R,5S,6R)-2-[2-[9-[2-(dimethylamino)ethyl-methyl-amino]-7-[2-[(2R,3S,4R,5S,6R)-3,4,5-trihydroxy-6-(hydroxymethyl)tetrahydropyran-2-yl]ethynyl]-9H-fluoren-2-yl]ethynyl]-6-(hydroxymethyl)tetrahydropyran-3,4,5-triol]: the IC50 was 3.7 nM. As to `CN1CCN(C(=O)Cn2c3cc(C#C[C@H]4O[C@H](CO)[C@@H](O)[C@H](O)[C@@H]4O)ccc3c3ccc(C#C[C@H]4O[C@H](CO)[C@@H](O)[C@H](O)[C@@H]4O)cc32)CC1` [Compound 179, 2-[2,7-bis[2-[(2R,3S,4R,5S,6R)-3,4,5-trihydroxy-6-(hydroxymethyl)tetrahydropyran-2-yl]ethynyl]carbazol-9-yl]-1-(4-methylpiperazin-1-yl)ethanone], the IC50 came out at 7.1 nM. Turning to `O=C(c1cnccn1)c1c(C#C[C@H]2O[C@H](CO)[C@@H](O)[C@H](O)[C@@H]2O)ccc2c1C1(CCNCC1)c1cc(C#C[C@H]3O[C@H](CO)[C@@H](O)[C@H](O)[C@@H]3O)ccc1-2` [Compound 236, [2,7-bis[2-[(2R,3S,4R,5S,6R)-3,4,5-trihydroxy-6-(hydroxymethyl)tetrahydropyran-2-yl]ethynyl]spiro[fluorene-9,4piperidine]-1yl]-pyrazin-2-yl-methanone], the IC50 came out at 0.5 nM. Regarding `Cc1cc([C@H]2O[C@H](CO)[C@@H](O)[C@H](O)[C@@H]2O)ccc1C#C[C@H]1O[C@H](CO)[C@@H](O)[C@H](O)[C@@H]1O` [Compound 143], the IC50 was 240 nM. On to `CC(C)c1cc(C#C[C@H]2O[C@H](CO)[C@@H](O)[C@H](O)[C@@H]2O)c(C(C)C)cc1C#C[C@H]1O[C@H](CO)[C@@H](O)[C@H](O)[C@@H]1O` [Compound 76], for which the IC50 is 46 nM.

Turning to `CN(C)CC(O)Cn1c2ccc(C#C[C@H]3O[C@H](CO)[C@@H](O)[C@H](O)[C@@H]3O)cc2c2cc(C#C[C@H]3O[C@H](CO)[C@@H](O)[C@H](O)[C@@H]3O)ccc21` (stereo partly drawn) [Compound 173, (2R,3S,4R,5S,6R)-2-[2-[9-[3-(dimethylamino)-2-hydroxy-propyl]-6-[2-[(2R,3S,4R,5S,6R)-3,4,5-trihydroxy-6-(hydroxymethyl)tetrahydropyran-2-yl]ethynyl]carbazol-3-yl]ethynyl]-6-(hydroxymethyl)tetrahydropyran-3,4,5-triol], the IC50 turned out to be 9.3 nM. For `OC[C@H]1O[C@H](C#Cc2ccc(C#C[C@H]3O[C@H](CO)[C@@H](O)[C@H](O)[C@@H]3O)c(C(F)(F)F)c2)[C@@H](O)[C@@H](O)[C@@H]1O` [Compound 91, (2R,3S,4R,5S,6R)-2-(hydroxymethyl)-6-[2-[3-(trifluoromethyl)-4-[2-[(2R,3S,4R,5S,6R)-3,4,5-trihydroxy-6-(hydroxymethyl)tetrahydropyran-2-yl]ethynyl]phenyl]ethynyl]tetrahydropyran-3,4,5-triol], the IC50 is 58 nM. For `OC[C@H]1O[C@H](C#Cc2ccc3c(c2)C(O)(CC2CCCCC2)c2cc(C#C[C@H]4O[C@H](CO)[C@@H](O)[C@H](O)[C@@H]4O)ccc2-3)[C@@H](O)[C@@H](O)[C@@H]1O` (stereo partly drawn) [Compound 215, (2R,3S,4R,5S,6R)-2-[2-[9-(cyclohexylmethyl)-9-hydroxy-7-[2-[(2R,3S,4R,5S,6R)-3,4,5-trihydroxy-6-(hydroxymethyl)tetrahydropyran-2-yl]ethynyl]fluoren-2-yl]ethynyl]-6-(hydroxymethyl)tetrahydropyran-3,4,5-triol], the IC50 came out at 5 nM. Consider `OC[C@H]1O[C@H](C#Cc2ccc3c4ccc(C#C[C@H]5O[C@H](CO)[C@@H](O)[C@H](O)[C@@H]5O)cc4n(CCN4CCOCC4)c3c2)[C@@H](O)[C@@H](O)[C@@H]1O` [Compound 189, (2R,3S,4R,5S,6R)-2-(hydroxymethyl)-6-[2-[9-(2-morpholinoethyl)-7-[2-[(2R,3S,4R,5S,6R)-3,4,5-trihydroxy-6-(hydroxymethyl)tetrahydropyran-2-yl]ethynyl]carbazol-2-yl]ethynyl]tetrahydropyran-3,4,5-triol], for which the IC50 was determined as 7.8 nM. As for `COc1cc(C#C[C@H]2O[C@H](CO)[C@@H](O)[C@H](O)[C@@H]2O)c(OC)cc1C#C[C@H]1O[C@H](CO)[C@@H](O)[C@H](O)[C@@H]1O` [Compound 96, (2R,3S,4R,5S,6R)-2-[2-[2,5-dimethoxy-4-[2-[(2R,3S,4R,5S,6R)-3,4,5-trihydroxy-6-(hydroxymethyl)tetrahydropyran-2-yl]ethynyl]phenyl]ethynyl]-6-(hydroxymethyl)tetrahydropyran-3,4,5-triol], the IC50 worked out at 66 nM. The same measure for `CC(C)C1(O)c2cc(C#C[C@H]3O[C@H](CO)[C@@H](O)[C@H](O)[C@@H]3O)ccc2-c2ccc(C#C[C@H]3O[C@H](CO)[C@@H](O)[C@H](O)[C@@H]3O)cc21` [Compound 165, (2R,3S,4R,5S,6R)-2-[2-[9-hydroxy-9-isopropyl-7[2-[(2R,3S,4R,5S,6R)-3,4,5-trihydroxy-6-(hydroxymethyl)tetrahydropyran-2-yl]ethynyl]fluoren-2-yl]ethynyl]-6-(hydroxymethyl)tetrahydropyran-3,4,5-triol]: 2.4 nM.

(Values after US11634447B2 (priority 2012, dated 2023).)
